Where two headings read alike, the source gives them in different places.
Assays:
pAKT in BT474 cells = test: Cell-based pAKT HTRF assay in BT474 cells; conditions: BT474 cells, 4 hr incubation, read-out: pAKT inhibition IC50 in BT474 cells
How it was run: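 pAKT was measured by HTRF after a 4 hr compound exposure in BT474 cells (DMEM, 10% FBS, 0.25% DMSO), using 9 concentrations from 3 μM in 3-fold steps. Cell lysates were incubated with the Eu cryptate/d2 antibody pair at room temperature for 4 to 24 h. The plate was then read at 320 nm excitation and 615 nm emission.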

[1] = target: Cys242 in human PIK3CA (157-299) (Homo sapiens (Human), UniProt P42336); test: Covalent modification assay using MALDI-TOF MS; assay type: biochemical; conditions: 4 h reaction time point
Sequence of Cys242 in human PIK3CA (157-299) (P42336 157-299): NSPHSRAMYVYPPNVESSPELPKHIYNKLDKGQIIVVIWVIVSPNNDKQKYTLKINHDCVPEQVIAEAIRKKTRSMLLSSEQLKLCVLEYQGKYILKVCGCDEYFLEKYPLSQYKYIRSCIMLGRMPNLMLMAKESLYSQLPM
How it was run: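 Covalent adduct formation was read by linear-mode MALDI-TOF with sinapinic acid matrix, reported as modified-protein peak height divided by total protein peak heights. Reactions held PIK3CA (157-299) at 1 or 3.33 μM in HEPES/NaCl/MgCl2 buffer, pH 7.3, sampled after 15 min to 4 h at room temperature.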

[2] = 3.33 μM protein target, 1:7.5 protein to compound ratio (compounds 1-852)
[3] = 1 μM protein target, 1:5 protein to compound ratio (compounds 853-1279)

SMILES | IC50 (pAKT in BT474 cells; Compounds 10-999) | % of modification [1, 2] | % of modification [1, 3] | IC50 (pAKT in BT474 cells; Homo sapiens, BT-474, Compounds 10-999) | IC50 (pAKT in BT474 cells; Compounds 1000-1279)
C=CC(=O)N1CCc2ccc(-c3nc(-c4ccc5c(c4)CCN(C)C5)c4ccsc4c3-c3ccc(F)cc3OCCOC)cc2C1 [Compound 83] | < 100 nM | A (percent of modification of PIK3CA protein ≥75%) |  |  | 
C=CC(=O)N1Cc2cc(-c3nc(N4CCC(N(C)C)CC4)c4ccsc4c3-c3c(F)cc(F)cc3OCCOC)nn2CC1C (centres unmarked) [Compound 857] | < 100 nM |  | A (percent of modification of PIK3CA protein ≥75%) |  | 
CC#CC(=O)N1CCc2nc(-c3nc(-c4ccc5c(c4)CCNC5)c4ccsc4c3-c3ccc(F)cc3OCCOC)sc2C1 [Compound 127] | 1000 to 3000 nM | D (percent of modification <25%) |  |  | 
C=CC(=O)N1CCn2nc(-c3nc(-c4cnn(C)c4)c4ccsc4c3-c3ccc(F)cc3OCCOC)cc2C1 [Compound 194, 1-[2-[7-[4-fluoro-2-(2-methoxyethoxy)phenyl]-4-(1-methylpyrazol-4-yl)thieno[3,2-c]pyridin-6-yl]-6,7-dihydro-4H-pyrazolo[1,5-a]pyrazin-5-yl]prop-2-en-1-one] |  | A (percent of modification of PIK3CA protein ≥75%) |  | < 100 nM | 
C=CC(=O)N1CC(n2nc(-c3nc(-c4ccc5c(c4)CCNC5)c4ccsc4c3-c3ccc(F)cc3OCCOC)ccc2=O)C1 [Compound 204] | 100 to 1000 nM | B (50%<percent of modification <75%) |  |  | 
C=CC(=O)N1Cc2cc(-c3nc(-c4ccc5c(c4)C(=O)N(C)C5)c4ccsc4c3-c3c(F)cc(F)cc3OC)nn2[C@@H](C)C1 [Compound 905] | 100 to 1000 nM |  | C (25%≤percent of modification <50%) |  | 
C=CC(=O)N1CCn2nc(-c3nc(-c4ccc5c(=O)n(C)ncc5c4)c4ccsc4c3-c3c(F)cc(F)cc3OCCO)cc2[C@H]1C [Compound 889] | < 100 nM |  | A (percent of modification of PIK3CA protein ≥75%) |  | 
C=CC(=O)N1CC(n2cc(-c3nc(-c4ccnc(N)c4)c4ccsc4c3-c3ccc(F)cc3OCCOC)ccc2=O)C1 [Compound 177] | 100 to 1000 nM | B (50%<percent of modification <75%) |  |  | 
C=CC(=O)N1CCn2nc(-c3nc(-c4cnn(C(F)F)c4)c4ccsc4c3-c3ccc(F)cc3OCCOC)cc2C1 [Compound 245] | < 100 nM | A (percent of modification of PIK3CA protein ≥75%) |  |  | 
C=CC(=O)N1CCc2ncc(-c3nc(-c4ccc5nncn5c4)c4ccsc4c3-c3c(F)cc(F)cc3OCCOC)cc2C1 [Compound 941] | < 100 nM |  | A (percent of modification of PIK3CA protein ≥75%) |  | 
C=CC(=O)N1CCn2nc(-c3nc(C4CCN(C(C)C)CC4)c4ccsc4c3-c3ccc(F)cc3OCCOC)cc2C1 [Compound 220] | < 100 nM | A (percent of modification of PIK3CA protein ≥75%) |  |  | 
C=CC(=O)N1CCc2ncc(-c3nc(-c4ccc5c(c4)CN(C)C5=O)c4ccsc4c3-c3c(F)cc(F)cc3OCCOC)cc2C1 [Compound 402] | < 100 nM | A (percent of modification of PIK3CA protein ≥75%) |  |  | 
C=CC(=O)N1CCn2nc(-c3nc(-c4ccc5c(c4)CNC5=O)c4ccsc4c3-c3c(F)cc(F)cc3OCCOC)cc2[C@H]1C [Compound 617, 5-((S)-6-((R)-5-acryloyl-4-methyl-4,5,6,7-tetrahydropyrazolo[1,5-a]pyrazin-2-yl)-7-(2,4-difluoro-6-(2-methoxyethoxy)phenyl)thieno[3,2-c]pyridin-4-yl)isoindolin-1-one] | < 100 nM | A (percent of modification of PIK3CA protein ≥75%) |  |  | 
C=CC(=O)N1CCc2nc(-c3nc(-c4ccc5c(c4)CCN(C)C5)c4ccsc4c3-c3c(F)cc(F)cc3OCC)sc2C1 [Compound 438] | 100 to 1000 nM | A (percent of modification of PIK3CA protein ≥75%) |  |  | 
C=CC(=O)N1CCn2nc(-c3nc(-c4ccc5c(c4)CN(C)C5=O)c4ccsc4c3-c3c(F)cc(F)cc3OCCO)cc2C1C (centres unmarked) [Compound 875] | < 100 nM |  | A (percent of modification of PIK3CA protein ≥75%) |  | 
C=CC(=O)N1CCc2ncc(-c3nc(-c4ccc(=O)n(C)c4)c4ccsc4c3-c3c(F)cc(F)cc3OCCOC)cc2C1 [Compound 375] | < 100 nM | A (percent of modification of PIK3CA protein ≥75%) |  |  | 

SMILES | IC50 (pAKT in BT474 cells; Compounds 10-999) | % of modification [1, 2] | % of modification [1, 3] | IC50 (pAKT in BT474 cells; Homo sapiens, BT-474, Compounds 10-999) | IC50 (pAKT in BT474 cells; Compounds 1000-1279)
C=CC(=O)N1Cc2cc(-c3nc(-c4ccc5c(c4)CCN(C)C5)c4ccsc4c3-c3c(F)cc(F)cc3OC)nn2[C@@H](C)C1 [Compound 563] | < 100 nM | A (percent of modification of PIK3CA protein ≥75%) |  |  | 
C=CC(=O)N1CCc2ccc(-c3nc(-c4cnc5c(c4)CNC(=O)C5)c4ccsc4c3-c3c(F)cc(F)cc3OCCOC)cc2C1 [Compound 580, (S)-3-(6-(2-acryloyl-1,2,3,4-tetrahydroisoquinolin-7-yl)-7-(2,4-difluoro-6-(2-methoxyethoxy)phenyl)thieno[3,2-c]pyridin-4-yl)-5,8-dihydro-1,6-naphthyridin-7(6H)-one] | < 100 nM | A (percent of modification of PIK3CA protein ≥75%) |  |  | 
C=C(F)C(=O)N1Cc2cc(-c3nc(-c4ccc5c(c4)CCN(C)C5)c4ccsc4c3-c3c(F)cc(F)cc3OC(C)C)nn2CC1C (single isomer, unassigned) [Compound 501] | 100 to 1000 nM | D (percent of modification <25%) |  |  | 
C=C(F)C(=O)N1CCn2nc(-c3nc(-c4cncc(C#N)c4)c4ccsc4c3-c3ccc(F)cc3OC(C)C)cc2C1 [Compound 303] | 100 to 1000 nM | A (percent of modification of PIK3CA protein ≥75%) |  |  | 
C=CC(=O)N1Cc2cc(-c3nc(-c4ccc5c(c4)C(=O)NC5)c4ccsc4c3-c3c(F)cc(F)cc3OCCOC)nn2CC1C (centres unmarked) [Compound 768] | < 100 nM | A (percent of modification of PIK3CA protein ≥75%) |  |  | 
C=C(F)C(=O)N1CCn2nc(-c3nc(-c4ccc5c(c4)CCN(C)C5)c4ccsc4c3-c3c(F)cc(F)cc3OC(C)C)cc2C1 (single isomer, unassigned) [Compound 486] | < 100 nM | A (percent of modification of PIK3CA protein ≥75%) |  |  | 
COc1cc(F)ccc1-c1c(-c2cnn(C3CN(C(=O)/C=C/CN(C)C)C3)c2)nc(-c2cnn(CC(F)F)c2)c2ccsc12 [Compound 137] | 1000 to 3000 nM | C (25%≤percent of modification <50%) |  |  | 
C=CC(=O)N1CCn2nc(-c3nc(-c4ccc(C(=O)NCC5CN(C)C5)cc4)c4ccsc4c3-c3c(F)cc(F)cc3OCCOC)cc2C1C (centres unmarked) [Compound 1190] |  |  | A (percent of modification of PIK3CA protein ≥75%) |  | 100 to 1000 nM
C=CC(=O)N1CCn2nc(-c3nc(-c4ccc5c(c4)C(=O)NC5)c4ccsc4c3-c3c(F)cc(F)cc3OC)cc2C1C (centres unmarked) [Compound 1117] |  |  | A (percent of modification of PIK3CA protein ≥75%) |  | < 100 nM
C=CC(=O)N1Cc2cc(-c3nc(-c4ccc5nn(C)cc5c4)c4ccsc4c3-c3c(F)cc(F)cc3OCCOC)nn2C[C@H]1C [Compound 668, 1-((R)-2-((S)-7-(2,4-difluoro-6-(2-methoxyethoxy)phenyl)-4-(2-methyl-2H-indazol-5-yl)thieno[3,2-c]pyridin-6-yl)-6-methyl-6,7-dihydropyrazolo[1,5-a]pyrazin-5(4H)-yl)prop-2-en-1-one] | < 100 nM | A (percent of modification of PIK3CA protein ≥75%) |  |  | 
C=CC(=O)N1CCc2nc(-c3nc(-c4ccc5c(c4)CCN(CCO)C5)c4ccsc4c3-c3ccc(F)cc3OCCOC)sc2C1 [Compound 128] | < 100 nM | A (percent of modification of PIK3CA protein ≥75%) |  |  | 
C=CC(=O)N1CCC(n2cc(-c3nc(-c4ccc5c(c4)CCNC5)c4ccsc4c3-c3c(F)cc(F)cc3OC(C)C)cn2)C1 (centres unmarked) [Compound 410] | 100 to 1000 nM | A (percent of modification of PIK3CA protein ≥75%) |  |  | 
C=CC(=O)N1CCn2nc(-c3nc(-c4cn(C)cn4)c4ccsc4c3-c3c(F)cc(F)cc3OCCO)cc2[C@@H]1C [Compound 781] | < 100 nM | A (percent of modification of PIK3CA protein ≥75%) |  |  | 
C=CC(=O)N1CC(n2cc(-c3nc(-c4ccc(C(N)=O)cc4)c4ccsc4c3-c3ccc(F)cc3OC)cn2)C1 [Compound 172] | < 100 nM | A (percent of modification of PIK3CA protein ≥75%) |  |  | 
C=CC(=O)N1CC(n2cc(-c3nc(-c4ccc5c(c4)CCNC5)c4ccsc4c3-c3ccc(F)cc3OCCOC)ncc2=O)C1 [Compound 210] | < 100 nM | A (percent of modification of PIK3CA protein ≥75%) |  |  | 

Reference: patent publication US20250230138A1, “COMPOUNDS HAVING A T-STRUCTURE FORMED BY AT LEAST FOUR CYCLES FOR USE IN THE TREATMENT OF CANCER AND OTHER INDICATIONS” (TheRas, Inc., priority 2022, published 2025)
